Paper PMC8557866, “Novel Small Molecule Growth Inhibitor Affecting Bacterial Outer Membrane Reduces Extraintestinal Pathogenic Escherichia coli (ExPEC) Infection in Avian Model” (Microbiology Spectrum, 2021)
Values after ≈ are worked out from the molar mass of the structure shown.

What was measured:
[1] = test system: APEC O78; test: Comparative efficacy of GI-7 and sulfadimethoxine, floor trial; assay type: in vivo, commercial broiler chickens; design: % reduction in severity, Liver lesions / % reduction in severity, Heart lesions / % reduction in severity, Lung lesions / % reduction in severity, Air sacs lesions: concentration or dose not given beside the values; Cumulative lesion score / Mean lesion score in Liver / Mean lesion score in Heart / Mean lesion score in Lung / Mean lesion score in Air sacs: scale not given here
Procedure: At day 13 (7 dpi), half of the chickens from each group, and at day 42 (slaughter age), 10 chickens from each group were necropsied and lesions and APEC loads were assessed as described above.

[2] = Quantification of residue in chicken tissues (LC-MS); assay type: in vivo, chickens
From the text: Chickens (n = 5/time point) from an experimental set-up as described above for the floor trial were sacrificed at 2 days (day 13; 2 DPLT), 5 days (day 16; 5 DPLT), and 31 days (day 42; 31 DPLT) post-last treatment. […] Tissue samples from chickens treated with SDM were used for comparison. […] Details of the methods are included in the supplemental material.

[3] = Pharmacokinetic study in plasma of chickens (LC-MS); assay type: in vivo; conditions: plasma
Procedure: Details of the methods are included in the supplemental material. page 3: previously(3). […] The mixtures were then incubated at […] for 30 min and proteins were removed by ultracentrifugation at 13,000xg for 25 min at 2 °C.

[4] = test system: APEC O78; design: method as in PMID 30333507; conditions: cited from earlier work
[5] = test system: APEC serotype O78; conditions: for Cumulative lesion score: PC 6.2; for % reduction in severity, Air sacs lesions / % reduction in severity, Heart lesions / % reduction in severity, Liver lesions / % reduction in severity, Lung lesions / log reduction in APEC load, Heart / log reduction in APEC load, Kidney / log reduction in APEC load, Liver / log reduction in APEC load, Lung: vs PC; for BWG (body weight gain): in vivo
Procedure: The efficacy of GIs was assessed using commercial broiler chickens (n = 6/group). […] GI compounds (ChemBridge, San Diego, CA) dissolved in dimethyl sulfoxide (DMSO) were administered orally using a syringe, twice a day, from day 4 (1 day before APEC infection) to day 8 (3 days postinfection [dpi]). The dose of each GI is described in Table S1. […] Chickens that were infected and vehicle-treated (positive control [PC]) and noninfected and nontreated (negative control [NC]) were included as controls. On day 5, chickens were infected subcutaneously (s.c.) with rifampin-resistant (Rif^r) APEC serotype O78 ([18]) (1 × 10^7 CFU/chicken). […] To prepare the APEC inoculum for infection, Rif^r APEC O78 (50 μg/ml rifampin) was grown to logarithmic phase in LB medium, washed twice with phosphate-buffered saline (PBS), and adjusted to an optical density at 600 nm (OD600) of 0.1 (5 × 10^7 CFU/ml). The clinical signs and mortality were recorded until 7 dpi. Chickens that died during this period were necropsied on the same day, lesions in internal organs (liver, heart, lung, and air sacs) were scored as described previously ([63], [71]), and the APEC loads were quantified in internal organs (liver, heart, lung, and kidney) by plating the tissue homogenates on MacConkey agar plates containing 50 μg/ml rifampin ([18]). At 7 dpi (day 12), all live birds were euthanized, lesions were scored, and the APEC loads in internal organs were quantified as described above. The body weight of chickens was measured before GI treatment (day 3) and at the day of necropsy (day 12).

[6] = comparative efficacy trial, vs PC
[7] = comparative efficacy, GI-7 60 mg/liter, SDM 495.3 mg/liter, 7 dpi

COc1cc(NS(=O)(=O)c2ccc(N)cc2)nc(OC)n1 [SDM, sulfadimethoxine, reference compound]
Mortality reduction compared to PC group ([1]; GI-7 60 mg/liter, SDM 495.3 mg/liter in drinking water, PC mortality 41.2%): 11.9% | Mean APEC load, Heart ([1]; comparative efficacy trial): 5.6 Log CFU/g tissues | Mean APEC load, Kidney ([1]; comparative efficacy trial): 5.5 Log CFU/g tissues | Mean APEC load, Liver ([1]; comparative efficacy trial): 5.0 Log CFU/g tissues | Mean APEC load, Lung ([1]; comparative efficacy trial): 6.2 Log CFU/g tissues | log reduction in APEC load, Heart [1, 6]: 2.3 Log CFU/g tissues | log reduction in APEC load, Kidney [1, 6]: 2.2 Log CFU/g tissues | log reduction in APEC load, Liver [1, 6]: 2.5 Log CFU/g tissues | log reduction in APEC load, Lung [1, 6]: 1.9 Log CFU/g tissues | Cumulative lesion score ([1]; comparative efficacy, 7 dpi): 8.5 | Mean lesion score in Air sacs [1, 7]: 2.5 | Mean lesion score in Heart [1, 7]: 2.8 | Mean lesion score in Liver [1, 7]: 2.0 | Mean lesion score in Lung [1, 7]: 1.2 | % reduction in severity, Air sacs lesions ([1]; comparative efficacy, vs PC): 25.7% | % reduction in severity, Heart lesions ([1]; comparative efficacy, vs PC): 20.8% | % reduction in severity, Liver lesions ([1]; comparative efficacy, vs PC): 19.2% | % reduction in severity, Lung lesions ([1]; comparative efficacy, vs PC): 36.9% | Survival of chickens ([1]; floor trial, P < 0.1): increased the survival | Overall BWG ([1]; in vivo): 2,408.1 g | Overall FCR ([1]; in vivo): 1.49 | Residue concentration in muscle ([2]; 2 DPLT): 0.2 ± 0.1 ppm/g tissue | Residue level in kidney ([2]; 2 DPLT): 1.0 ± 0.2 ppm/g tissue | Residue level in liver ([2]; 2 DPLT): 0.2 ± 0.04 ppm/g tissue | Residue concentration in muscle ([2]; 5 DPLT): 0.02 ± 0.02 ppm/g tissue | Residue level in kidney ([2]; 5 DPLT): 1 ± 0.1 ppm/g tissue | Residue level in liver ([2]; 5 DPLT): 0.04 ± 0.02 ppm/g tissue | Residue concentration in muscle ([2]; 31 DPLT): 0.0 ± 0.0 ppm/g tissue | Residue level in kidney ([2]; 31 DPLT): 0.0 ± 0.0 ppm/g tissue | Residue level in liver ([2]; 31 DPLT): 0.0 ± 0.0 ppm/g tissue | Cmax ([3]; commercial broiler, po, mean ± standard deviation, read-out: Peak plasma concentration (Cmax)): 994 ± 167 ng/mL | Tmax ([3]; commercial broiler, po, postadministration, read-out: Time to maximum concentration (Tmax)): 24 h | Absorption (time at which absorbed) ([3]; drinking water delivery): 2 h

COc1cc(CNCCc2ccc(C)cc2)ccc1OCC(O)CN1CCCC1 (stereo not drawn) [GI-3]
MIC [4]: 100 µM (≈ 39.9 µg/mL) | Mean APEC load, Heart ([5]; efficacy trial, oral): 7.0 Log CFU/g tissues | Mean APEC load, Kidney ([5]; efficacy trial, oral): 6.9 Log CFU/g tissues | Mean APEC load, Liver ([5]; efficacy trial, oral): 6.5 Log CFU/g tissues | Mean APEC load, Lung ([5]; efficacy trial, oral): 7.0 Log CFU/g tissues | Mean lesion score in Air sacs ([5]; efficacy trial, oral): 1.8 | Mean lesion score in Heart ([5]; efficacy trial, oral): 2 | Mean lesion score in Liver ([5]; efficacy trial, oral): 2 | Mean lesion score in Lung ([5]; efficacy trial, oral): 1 | Cumulative lesion score ([5]; efficacy trial, oral): 6.8 | % reduction in severity, Air sacs lesions ([5]; efficacy trial, oral): −29.4% | % reduction in severity, Heart lesions ([5]; efficacy trial, oral): 4% | % reduction in severity, Liver lesions ([5]; efficacy trial, oral): −20% | % reduction in severity, Lung lesions ([5]; efficacy trial, oral): 0% | log reduction in APEC load, Heart ([5]; efficacy trial, oral): -2.1 Log CFU/g tissues | log reduction in APEC load, Kidney ([5]; efficacy trial, oral): -1.4 Log CFU/g tissues | log reduction in APEC load, Liver ([5]; efficacy trial, oral): -1.8 Log CFU/g tissues | log reduction in APEC load, Lung ([5]; efficacy trial, oral): -2.0 Log CFU/g tissues | BWG (body weight gain) [5]: 254.6±95

COc1cc(CNCCc2ccc3ccccc3c2)ccc1OCC(O)CN1CCCC1 (stereo not drawn) [GI-2]
MIC [4]: 100 µM (≈ 43.5 µg/mL) | Mean APEC load, Heart ([5]; efficacy trial, oral): 4.1 Log CFU/g tissues | Mean APEC load, Kidney ([5]; efficacy trial, oral): 3.8 Log CFU/g tissues | Mean APEC load, Liver ([5]; efficacy trial, oral): 3.4 Log CFU/g tissues | Mean APEC load, Lung ([5]; efficacy trial, oral): 3.5 Log CFU/g tissues | Mean lesion score in Air sacs ([5]; efficacy trial, oral): 1.2 | Mean lesion score in Heart ([5]; efficacy trial, oral): 1.8 | Mean lesion score in Liver ([5]; efficacy trial, oral): 1.7 | Mean lesion score in Lung ([5]; efficacy trial, oral): 0.7 | Cumulative lesion score ([5]; efficacy trial, oral): 5.3 | Mortality reduction compared to PC group ([5]; efficacy trial, oral, PC mortality 58.3%): 25% | % reduction in severity, Air sacs lesions ([5]; efficacy trial, oral): 17.7% | % reduction in severity, Heart lesions ([5]; efficacy trial, oral): 12% | % reduction in severity, Liver lesions ([5]; efficacy trial, oral): 0% | % reduction in severity, Lung lesions ([5]; efficacy trial, oral): 33.3% | log reduction in APEC load, Heart ([5]; efficacy trial, oral): 0.8 Log CFU/g tissues | log reduction in APEC load, Kidney ([5]; efficacy trial, oral): 1.7 Log CFU/g tissues | log reduction in APEC load, Liver ([5]; efficacy trial, oral): 0.9 Log CFU/g tissues | log reduction in APEC load, Lung ([5]; efficacy trial, oral): 1.1 Log CFU/g tissues | BWG (body weight gain) [5]: 125.5±34.7
